Assay results as given in US10590392B2, “Generation of airway epithelial organoids from human pluripotent stem cells” (TRUSTEES OF BOSTON UNIVERSITY, priority 2017, dated 2020).
“Also recorded” adds a separate entry of the source.

Experiments:
[1] = system: 7XTCF-mCherry Wnt reporter in FG293 cells; test: Lentiviral 7XTCF-mCherry Wnt reporter dose-response in FG293 cells; conditions: 3 μM CHIR
[2] = system: iPSC-derived NKX2-1GFP+ lung progenitors; test: Post-specification patterning of hPSC-derived lung progenitors, treatment day 15 to 19, RT-qPCR/flow cytometry of NKX2-1GFP+ cells; assay type: cell-based, human
Procedure: Measurement of mRNA expression by reverse transcriptase quantitative real time PCR (RT-qPCR) was performed as previously described(Longmire et al., 2012). Briefly, RNA was extracted from cells using a QIAzol Lysis Reagent (Qiagen, Venlo, Netherlands) and 150 ng of RNA was transcribed to cDNA using reverse transcription reagents (Applied Biosystems). Real time PCR (qPCR) was performed using TaqMan Fast Universal PCR Master Mix (ThermoFisher) and TaqMan (Applied Biosystems) reagents. The cDNA was diluted 1:3 and 2 μL of cDNA was added to each 25 μL (for Applied Biosystems StepOne 96-well System) or 12.5 μL (for Applied Biosystems QuantStudio7 384-well system) qPCR reaction. Each sample was run in technical triplicates and cycle (Ct) values were averaged between triplicates for analysis. Relative gene expression, normalized to 18S control, was calculated as fold change in 18S-normalized gene expression, compared to baseline, using the 2^(−ΔΔCT) method. Baseline, defined as fold change=1, was set to undifferentiated iPSC levels, or if undetected, a cycle number of 40 was assigned to allow fold change calculations. Adult lung control RNA was extracted from a normal lung biopsy sample. Primers were all TaqMan probes purchased from Applied Biosystems. Specifics of primers used are detailed in Table 1.
Day 14-16 cells from the lung progenitor directed differentiation protocol were harvested with 0.05% Trypsin-EDTA (Invitrogen) and replated in clumps in either Matrigel-coated tissue culture dishes in two-dimensional culture or in three-dimensional Matrigel drops. Matrigel drops were formed by resuspending cell clumps directly in undiluted Matrigel matrix, pipetting 50-100 μL into each well, and allowing the Matrigel/cell mixture to gel for 30 minutes at 37° C. Cell drops were then covered completely with growth medium.
Post-specification culture conditions were determined by the addition of growth factors to cSFDM. For patterning experiments, growth factors were added to a base media containing 10 ng/mL rhFGF10 (“Base”) and additional factors detailed in the results text. For concentrations of growth factors required for each experiment, see Table 2. Cells were additionally cultured with 10 μM Y-27632 (Tocris) for 24 hours after replating. Doses of growth factors were determined based on previously published directed differentiation protocols (Huang et al., 2013; Kurmann et al., 2015; Longmire et al., 2012) as well as dose-response experiments using 7XTCF lentiviral reporters for CHIR99021 (Figure S2d-e). […]
To test whether the inventors could efficiently induce a proximal vs distal program in iPSC-derived lung progenitors, the inventors modulated key developmental pathways beginning on day 15 of differentiation in our model system (FIG. 1C-1E), and monitored changes in SOX2 and SOX9 expression that are due to coordinated proximal vs distal patterning changes in purified NKX2-1^GFP+ cells within 4 days of treatment. At day 15, post-lung specification, the inventors cultured cells in a base media of “low dose” (10 ng/mL) FGF10 to promote proliferation without strongly inducing patterning(Volckaert et al., 2013). From this base media, the inventors stimulated the following pathways: Wnt signaling via the potent GSK3β inhibitor CHIR99021, hereafter CHIR; FGF signaling using FGF2 or high dose (100 ng/mL) FGF10; BMP signaling using BMP4; and TGFβ signaling using TGFβ

[3] = NKX2-1GFP+ sorted cells on day 19 after treatment day 15-19, vs base media (10 ng/mL FGF10), RT-qPCR
[4] = in response to CHIR withdrawal day 15-19, within 4 days

Q: Cc1c[nH]c(-c2cnc(NCCNc3ccc(C#N)cn3)nc2-c2ccc(Cl)cc2Cl)n1 [CHIR, CHIR99021] was tested. Which “Wnt activation (lentiviral TCF reporter)” value [1] did it give?
A: Its value is “induce Wnt activation”.

Q: And the cytotoxicity [1]?
A: The cytotoxicity was “without significant cytotoxicity”.

Q: What about the “expression of Wnt signaling responsive genes LEF1, NKD1, AXIN2” value ([2]; CHIR withdrawal day 15-19, day 19) of the same compound?
A: Its value is “reduced expression”.

Q: What about the “lentiviral TCF-driven reporter (7XTCF-mCherry) expression” value ([2]; CHIR withdrawal day 15-19, day 19, NKX2-1+ cells) of the same compound?
A: Its value is “reduced”.

Q: And the “SCGB3A2 mRNA expression” value [2, 3]?
A: Its value is “decreased expression”.

Q: And the “SOX2 mRNA expression” value [2, 3]?
A: The value was “significantly decreased”.

Q: And the “SOX9 mRNA expression” value [2, 3]?
A: The value was “increased”.

Q: What about the “expression of distal markers SOX9 and ETV5” value [2, 4] of the same compound?
A: The value was “downregulated; also recorded: decreased expression”.

Q: And the “expression of proximal airway markers (SCGB3A2, TP63/P63, MUC5AC)” value [2, 4]?
A: Its value is “upregulated; also recorded: significantly increased expression”.

Q: And the “percentage of NKX2-1GFP+ cells by day 19” value ([2]; withdrawal of CHIR from day 15 to 19, flow cytometry)?
A: The value was “significantly decreased percentage”.
